# Tests used:
# Assay type in all cases: functional
# [1] = tested on: Mus musculus; assay: Percent decrease in glucose of db/db mouse was measured at 100 mg/kg/day dosage.
# [2] = tested on: Mus musculus; assay: Percent decrease in glucose of db/db mouse was measured at 20 mg/kg/day dosage
# [3] = tested on: Mus musculus; assay: % decrease in insulin of 4 day ob/ob mouse was measured at 50 mg/kg/day dosage.
# [4] = tested on: Mus musculus; assay: % decrease in glucose of 4 day ob/ob mouse was measured at 50 mg/kg/day dosage.
# [5] = tested on: Mus musculus; assay: % decrease in glucose of 4 day ob/ob mouse was measured at 100 mg/kg/day dosage.
# [6] = tested on: Mus musculus; assay: % decrease in insulin of 4 day ob/ob mouse was measured at 100 mg/kg/day dosage.
smiles,measurement,setting,value
Cc1ccc(S(=O)(=O)C2(CC#Cc3ccccc3Cl)SC(=O)NC2=O)cc1 (configuration not stated),Decrease,[1],30%
O=C1NC(=O)C(CC#Cc2ccc(C(F)(F)F)cc2)(S(=O)(=O)c2ccc(F)cc2)S1 (configuration not stated),Decrease,[1],52%
same,Decrease,[2],<15%
O=C1NC(=O)C(CC#Cc2ccc(F)cc2)(S(=O)(=O)c2ccc(Cl)cc2)S1 (configuration not stated),Decrease,[1],54%
same,Decrease,[2],<15%
O=C1NC(=O)C(CC#Cc2ccc(Br)cc2)(S(=O)(=O)c2ccccc2)S1 (configuration not stated),Decrease,[1],53%
same,Decrease,[2],<15%
Cc1cccc(S(=O)(=O)C2(CC#Cc3ccccc3)SC(=O)NC2=O)c1 (configuration not stated),Decrease,[1],48%
same,Decrease,[2],<15%
Cc1ccc(C#CCC2(S(=O)(=O)c3ccc(C)cc3)SC(=O)NC2=O)cc1 (configuration not stated),Decrease,[1],28%
Cc1ccc(SC2(CC#Cc3ccc(Cl)cc3)SC(=O)NC2=O)cc1 (configuration not stated),Decrease,[1],27%
O=C1NC(=O)C(CC#Cc2ccc(F)cc2)(S(=O)(=O)c2ccc(F)cc2)S1 (configuration not stated),Decrease,[1],57%
same,Decrease,[2],25%
O=C1NC(=O)C(CC#Cc2ccc(C(F)(F)F)cc2)(S(=O)(=O)c2ccccc2)S1 (configuration not stated),Decrease,[1],59%
same,Decrease,[2],<15%
O=C1NC(=O)C(CC#Cc2ccc(Cl)cc2)(S(=O)(=O)c2ccccn2)S1 (configuration not stated),Decrease,[1],55%
same,Decrease,[2],38%
O=C1NC(=O)C(CC#Cc2ccc(Br)cc2)(S(=O)(=O)c2ccc(F)cc2)S1 (configuration not stated),Decrease,[1],70%
same,Decrease,[2],<15%
O=C1NC(=O)C(CC#Cc2ccc(Cl)cc2)(Sc2ccccc2)S1 (configuration not stated),Decrease,[1],<15%
O=C1NC(=O)C(CC#Cc2ccc(C(F)(F)F)cc2)(S(=O)(=O)c2ccc(Cl)cc2)S1 (configuration not stated),Decrease,[1],37%
O=C1NC(=O)C(CC#Cc2cc(C(F)(F)F)cc(C(F)(F)F)c2)(S(=O)(=O)c2ccccn2)S1 (configuration not stated),Decrease,[2],<15%
COc1ccc(C#CCC2(S(=O)(=O)c3ccccc3)SC(=O)NC2=O)cc1 (configuration not stated),Decrease,[1],25%
O=C1NC(=O)C(CC#Cc2cccc(Cl)c2)(S(=O)(=O)c2ccccc2)S1 (configuration not stated),Decrease,[1],<15%
Cc1ccc(S(=O)(=O)C2(CC#Cc3ccc(F)cc3)SC(=O)NC2=O)cc1 (configuration not stated),Decrease,[1],65%
same,Decrease,[2],<15%
same,Decrease,[3],30%
same,Decrease,[4],30%
O=C1NC(=O)C(CC#Cc2ccccc2)(S(=O)(=O)c2ccccc2)S1 (configuration not stated),Decrease,[1],<15%
O=C1NC(=O)C(CC#Cc2ccccc2)(S(=O)(=O)c2ccc(Cl)cc2)S1 (configuration not stated),Decrease,[1],36%
O=C1NC(=O)C(CC#Cc2ccc(F)c(F)c2)(S(=O)(=O)c2ccc(F)cc2)S1 (configuration not stated),Decrease,[1],33%
Cc1ccc(S(=O)(=O)C2(CC#Cc3ccc(C(F)(F)F)cc3)SC(=O)NC2=O)cc1 (configuration not stated),Decrease,[1],36%
same,Decrease,[2],<15%
O=C1NC(=O)C(CC#Cc2ccc(Cl)cc2)(S(=O)(=O)c2ccc(Br)cc2)S1 (configuration not stated),Decrease,[1],69%
same,Decrease,[2],<15%
same,Decrease,[3],69%
same,Decrease,[4],36%
O=C1NC(=O)C(CC#Cc2ccccc2)(S(=O)(=O)c2ccc(F)cc2)S1 (configuration not stated),Decrease,[1],26%
O=C1NC(=O)C(CC#Cc2ccc(Cl)cc2)(S(=O)(=O)c2ccc(F)cc2)S1 (configuration not stated),Decrease,[1],79%
same,Decrease,[2],31%
O=C1NC(=O)C(CC#Cc2ccc(Cl)cc2)(S(=O)(=O)c2ccc3ccccc3n2)S1 (configuration not stated),Decrease,[2],<15%
COc1ccc(S(=O)(=O)C2(CC#Cc3ccccc3)SC(=O)NC2=O)cc1 (configuration not stated),Decrease,[1],21%
Cc1cccc(S(=O)(=O)C2(CC#Cc3ccc(Cl)cc3)SC(=O)NC2=O)c1 (configuration not stated),Decrease,[1],33%
Cc1ccc(S(=O)(=O)C2(CC#Cc3ccccc3)SC(=O)NC2=O)cc1 (configuration not stated),Decrease,[1],43%
same,Decrease,[2],23%
O=C1NC(=O)C(S(=O)(=O)c2ccc3ccccc3c2)S1 (configuration not stated),Decrease,[1],21%
Cc1ccc(S(=O)(=O)C2(CC#Cc3cc(C(F)(F)F)cc(C(F)(F)F)c3)SC(=O)NC2=O)cc1 (configuration not stated),Decrease,[1],22%
O=C1NC(=O)C(CC#Cc2ccc(Cl)cc2)(S(=O)(=O)c2ccc(Cl)cc2)S1 (configuration not stated),Decrease,[1],70%
same,Decrease,[2],18%
same,Decrease,[3],56%
same,Decrease,[4],47%
Cc1cccc(S(=O)(=O)C2(CC#Cc3ccc(Cl)cc3)SC(=O)NC2=O)n1 (configuration not stated),Decrease,[1],<15%
same,Decrease,[2],<15%
O=C1NC(=O)C(CC#Cc2ccc(F)cc2)(S(=O)(=O)c2ccccn2)S1 (configuration not stated),Decrease,[1],67%
same,Decrease,[2],36%
same,Decrease,[3],54%
same,Decrease,[4],44%
O=C1NC(=O)C(CC#Cc2ccccc2Cl)(S(=O)(=O)c2ccccc2)S1 (configuration not stated),Decrease,[1],<15%
O=C1NC(=O)C(CC#Cc2ccccc2)(S(=O)(=O)c2ccc3ccccc3c2)S1 (configuration not stated),Decrease,[1],24%
O=C1NC(=O)C(CC#Cc2ccc(Cl)cc2)(Sc2ccc3ccccc3n2)S1 (configuration not stated),Decrease,[1],<15%
O=C1NC(=O)C(CC#Cc2cc(C(F)(F)F)cc(C(F)(F)F)c2)(S(=O)(=O)c2ccccc2)S1 (configuration not stated),Decrease,[1],54%
same,Decrease,[2],21%
O=C1NC(=O)C(CC#Cc2ccc(OC(F)(F)F)cc2)(S(=O)(=O)c2ccc(F)cc2)S1 (configuration not stated),Decrease,[1],56%
same,Decrease,[2],<15%
CSc1ccc(C#CCC2(S(=O)(=O)c3ccc(F)cc3)SC(=O)NC2=O)cc1 (configuration not stated),Decrease,[1],<15%
O=C1NC(=O)C(CC#Cc2ccc(F)cc2)(S(=O)(=O)c2ccccc2)S1 (configuration not stated),Decrease,[1],58%
same,Decrease,[2],<15%
O=C1NC(=O)C(CC#Cc2ccc(Cl)cc2)(S(=O)(=O)c2ccc3ccccc3c2)S1 (configuration not stated),Decrease,[1],20%
O=C1NC(=O)C(CC#Cc2ccc(F)cc2)(S(=O)(=O)c2ccc(Br)cc2)S1 (configuration not stated),Decrease,[1],64%
same,Decrease,[2],<15%
COc1ccc(S(=O)(=O)C2(CC#Cc3ccc(Cl)cc3)SC(=O)NC2=O)cc1 (configuration not stated),Decrease,[1],45%
same,Decrease,[2],<15%
COc1ccc(C#CCC2(S(=O)(=O)c3ccc(C)cc3)SC(=O)NC2=O)cc1 (configuration not stated),Decrease,[1],<15%
O=C1NC(=O)C(CC#Cc2ccc(Cl)cc2)(S(=O)(=O)c2ccccc2)S1 (configuration not stated),Decrease,[5],40%
same,Decrease,[1],52%
same,Decrease,[2],21%
same,Decrease,[6],65%
Cc1cccc(SC2(CC#Cc3ccc(Cl)cc3)SC(=O)NC2=O)n1 (configuration not stated),Decrease,[1],<15%
O=C1NC(=O)C(CC#Cc2ccc(Cl)cc2)(Sc2ccc(Cl)cc2)S1 (configuration not stated),Decrease,[1],24%
Cc1ccc(S(=O)(=O)C2(CC#Cc3ccc(Cl)cc3)SC(=O)NC2=O)cc1 (configuration not stated),Decrease,[1],35%
O=C1NC(=O)C(CC#Cc2ccc(Br)cc2)(S(=O)(=O)c2ccc(Cl)cc2)S1 (configuration not stated),Decrease,[1],68%
same,Decrease,[2],<15%
Cc1ccc(S(=O)(=O)C2(CC#Cc3ccc(Br)cc3)SC(=O)NC2=O)cc1 (configuration not stated),Decrease,[1],51%
same,Decrease,[2],23%
Cc1ccc(S(=O)(=O)C2(CC#Cc3cccc(Cl)c3)SC(=O)NC2=O)cc1 (configuration not stated),Decrease,[1],30%
Cc1ccc(C#CCC2(S(=O)(=O)c3ccccc3)SC(=O)NC2=O)cc1 (configuration not stated),Decrease,[1],<15%
O=C1NC(=O)C(CC#Cc2ccccc2)(S(=O)(=O)c2ccc(Br)cc2)S1 (configuration not stated),Decrease,[1],43%
same,Decrease,[2],<15%
O=C1NC(=O)C(CC#Cc2ccc(Cl)cc2)(Sc2ccccn2)S1 (configuration not stated),Decrease,[1],<15%
O=C1NC(=O)C(CC#Cc2ccc(Cl)cc2)(Sc2ccc(F)cc2)S1 (configuration not stated),Decrease,[1],<15%
CC1(COc2ccc(CC3SC(=O)NC3=O)cc2)CCCCC1 (configuration not stated) [CIGLITAZONE],Decrease,[5],43%
same,Decrease,[1],32%
same,Decrease,[2],<15%
same,Decrease,[6],39%
Cc1ccc(S(=O)(=O)C(CC#Cc2ccc(Cl)cc2)C(=O)O)cc1 (configuration not stated) [TIBEGLISENE],Decrease,[1],30%
same,Decrease,[3],54%
same,Decrease,[4],<15%
